Measured values from ChEMBL document CHEMBL1154064, “Synthesis and DNA cleavage activity of 2-hydrazinyl-1,4,5,6-tetrahydropyrimidine containing hydroxy group” (2009).

Key:
HL-60 [1] = assay: Growth inhibition of human HL60 cells at 100 uM after 72 hrs by MTT assay; type: functional; parameters: scale not given: the % may be the effect or the level left
Nucleic Acid [2] = assay: Binding affinity to Escherichia coli pUC19 DNA assessed as form 2 DNA level at 0.698 mM after 9.07 hrs by agarose gel electrophoresis; type: nucleic-acid assay
Nucleic Acid [3] = assay: Binding affinity to Escherichia coli pUC19 DNA assessed as form 1 DNA level at 0.698 mM after 4.95 hrs by agarose gel electrophoresis; type: nucleic-acid assay
Nucleic Acid [4] = assay: Binding affinity to Escherichia coli pUC19 DNA assessed as form 1 DNA level at 0.175 mM after 23.12 hrs by agarose gel electrophoresis; type: nucleic-acid assay
Nucleic Acid [5] = assay: Binding affinity to Escherichia coli pUC19 DNA assessed as form 1 DNA level at 0.698 mM after 9.07 hrs by agarose gel electrophoresis; type: nucleic-acid assay
Nucleic Acid [6] = assay: Binding affinity to Escherichia coli pUC19 DNA assessed as form 2 DNA level at 0.320 mM after 4.95 hrs by agarose gel electrophoresis; type: nucleic-acid assay
Nucleic Acid [7] = assay: Binding affinity to Escherichia coli pUC19 DNA assessed as form 1 DNA level at 0.463 mM by agarose gel electrophoresis; type: nucleic-acid assay
Nucleic Acid [8] = assay: Binding affinity to Escherichia coli pUC19 DNA assessed as form 1 DNA level at 0.320 mM after 27.33 hrs by agarose gel electrophoresis; type: nucleic-acid assay
Nucleic Acid [9] = assay: Binding affinity to Escherichia coli pUC19 DNA assessed as form 2 DNA level at 0.463 mM after 7.08 hrs by agarose gel electrophoresis; type: nucleic-acid assay
Nucleic Acid [10] = assay: Binding affinity to Escherichia coli pUC19 DNA assessed as form 2 DNA level at 0.698 mM after 13.07 hrs by agarose gel electrophoresis; type: nucleic-acid assay
Nucleic Acid [11] = assay: Binding affinity to Escherichia coli pUC19 DNA assessed as form 1 DNA level at 0.320 mM after 9.07 hrs by agarose gel electrophoresis; type: nucleic-acid assay
Nucleic Acid [12] = assay: Binding affinity to Escherichia coli pUC19 DNA assessed as form 1 DNA level at 0.175 mM after 9.07 hrs by agarose gel electrophoresis; type: nucleic-acid assay
Nucleic Acid [13] = assay: Binding affinity to Escherichia coli pUC19 DNA assessed as form 1 DNA level at 0.320 mM by agarose gel electrophoresis; type: nucleic-acid assay
Nucleic Acid [14] = assay: Binding affinity to Escherichia coli pUC19 DNA assessed as form 2 DNA level at 0.320 mM by agarose gel electrophoresis; type: nucleic-acid assay
Nucleic Acid [15] = assay: Binding affinity to Escherichia coli pUC19 DNA assessed as form 1 DNA level at 0.320 mM after 4.95 hrs by agarose gel electrophoresis; type: nucleic-acid assay
Nucleic Acid [16] = assay: Binding affinity to Escherichia coli pUC19 DNA assessed as form 1 DNA level at 0.463 mM after 11.30 hrs by agarose gel electrophoresis; type: nucleic-acid assay
Nucleic Acid [17] = assay: Binding affinity to Escherichia coli pUC19 DNA assessed as form 2 DNA level at 0.463 mM after 15 hrs by agarose gel electrophoresis; type: nucleic-acid assay
Nucleic Acid [18] = assay: Binding affinity to Escherichia coli pUC19 DNA assessed as form 2 DNA level at 0.320 mM after 27.33 hrs by agarose gel electrophoresis; type: nucleic-acid assay
Nucleic Acid [19] = assay: Binding affinity to Escherichia coli pUC19 DNA assessed as form 2 DNA level at 0.175 mM after 23.12 hrs by agarose gel electrophoresis; type: nucleic-acid assay
Nucleic Acid [20] = assay: Binding affinity to Escherichia coli pUC19 DNA assessed as form 2 DNA level at 0.320 mM after 9.07 hrs by agarose gel electrophoresis; type: nucleic-acid assay
Nucleic Acid [21] = assay: Binding affinity to Escherichia coli pUC19 DNA assessed as form 1 DNA level at 0.698 mM after 23.12 hrs by agarose gel electrophoresis; type: nucleic-acid assay
Nucleic Acid [22] = assay: Binding affinity to Escherichia coli pUC19 DNA assessed as form 1 DNA level at 0.320 mM after 13.07 hrs by agarose gel electrophoresis; type: nucleic-acid assay
Nucleic Acid [23] = assay: Binding affinity to Escherichia coli pUC19 DNA assessed as form 1 DNA level at 0.175 mM by agarose gel electrophoresis; type: nucleic-acid assay
Nucleic Acid [24] = assay: Binding affinity to Escherichia coli pUC19 DNA assessed as form 2 DNA level at 0.698 mM by agarose gel electrophoresis; type: nucleic-acid assay
Nucleic Acid [25] = assay: Binding affinity to Escherichia coli pUC19 DNA assessed as form 1 DNA level at 0.698 mM by agarose gel electrophoresis; type: nucleic-acid assay
Nucleic Acid [26] = assay: Binding affinity to Escherichia coli pUC19 DNA assessed as form 2 DNA level at 0.175 mM after 4.95 hrs by agarose gel electrophoresis; type: nucleic-acid assay
Nucleic Acid [27] = assay: Binding affinity to Escherichia coli pUC19 DNA assessed as form 2 DNA level at 0.463 mM by agarose gel electrophoresis; type: nucleic-acid assay
Nucleic Acid [28] = assay: Binding affinity to Escherichia coli pUC19 DNA assessed as form 2 DNA level at 0.175 mM after 9.07 hrs by agarose gel electrophoresis; type: nucleic-acid assay
Nucleic Acid [29] = assay: Binding affinity to Escherichia coli pUC19 DNA assessed as form 1 DNA level at 0.463 mM after 4.42 hrs by agarose gel electrophoresis; type: nucleic-acid assay
Nucleic Acid [30] = assay: Binding affinity to Escherichia coli pUC19 DNA assessed as form 2 DNA level at 0.175 mM by agarose gel electrophoresis; type: nucleic-acid assay
Nucleic Acid [31] = assay: Binding affinity to Escherichia coli pUC19 DNA assessed as form 1 DNA level at 0.175 mM after 13.07 hrs by agarose gel electrophoresis; type: nucleic-acid assay
HeLa [32] = assay: Growth inhibition of human HeLa cells at 100 uM after 72 hrs by MTT assay; type: functional; parameters: scale not given: the % may be the effect or the level left
Nucleic Acid [33] = assay: Binding affinity to Escherichia coli pUC19 DNA assessed as form 1 DNA level at 0.698 mM after 13.07 hrs by agarose gel electrophoresis; type: nucleic-acid assay
Nucleic Acid [34] = assay: Binding affinity to Escherichia coli pUC19 DNA assessed as form 2 DNA level at 0.698 mM after 23.12 hrs by agarose gel electrophoresis; type: nucleic-acid assay
HL-60 [35] = assay: Growth inhibition of human HL60 cells at 10 uM after 72 hrs by MTT assay; type: functional; parameters: scale not given: the % may be the effect or the level left
Nucleic Acid [36] = assay: Binding affinity to Escherichia coli pUC19 DNA assessed as form 2 DNA level at 0.320 mM after 13.07 hrs by agarose gel electrophoresis; type: nucleic-acid assay
Nucleic Acid [37] = assay: Binding affinity to Escherichia coli pUC19 DNA assessed as form 2 DNA level at 0.463 mM after 11.30 hrs by agarose gel electrophoresis; type: nucleic-acid assay
HeLa [38] = assay: Growth inhibition of human HeLa cells at 1000 uM after 72 hrs by MTT assay; type: functional; parameters: scale not given: the % may be the effect or the level left
Nucleic Acid [39] = assay: Binding affinity to Escherichia coli pUC19 DNA assessed as form 1 DNA level at 0.175 mM after 4.95 hrs by agarose gel electrophoresis; type: nucleic-acid assay
Nucleic Acid [40] = assay: Binding affinity to Escherichia coli pUC19 DNA assessed as form 2 DNA level at 0.463 mM after 4.42 hrs by agarose gel electrophoresis; type: nucleic-acid assay
HL-60 [41] = assay: Growth inhibition of human HL60 cells at 1000 uM after 72 hrs by MTT assay; type: functional; parameters: scale not given: the % may be the effect or the level left
Nucleic Acid [42] = assay: Binding affinity to Escherichia coli pUC19 DNA assessed as form 2 DNA level at 0.698 mM after 4.95 hrs by agarose gel electrophoresis; type: nucleic-acid assay
Nucleic Acid [43] = assay: Binding affinity to Escherichia coli pUC19 DNA assessed as form 1 DNA level at 0.463 mM after 7.08 hrs by agarose gel electrophoresis; type: nucleic-acid assay
Nucleic Acid [44] = assay: Binding affinity to Escherichia coli pUC19 DNA assessed as form 1 DNA level at 0.463 mM after 15 hrs by agarose gel electrophoresis; type: nucleic-acid assay
HeLa [45] = assay: Growth inhibition of human HeLa cells at 10 uM after 72 hrs by MTT assay; type: functional; parameters: scale not given: the % may be the effect or the level left
Nucleic Acid [46] = assay: Binding affinity to Escherichia coli pUC19 DNA assessed as form 2 DNA level at 0.175 mM after 13.07 hrs by agarose gel electrophoresis; type: nucleic-acid assay

Cl.Cl.NNC1=NCCN1
Activity (HL-60 [1]): 4% | Activity (Nucleic Acid [2]): 4.22% | Activity (Nucleic Acid [3]): 97.9% | Activity (Nucleic Acid [4]): 93.9% | Activity (Nucleic Acid [5]): 95.8% | Activity (Nucleic Acid [6]): 5.03% | Activity (Nucleic Acid [7]): 97.6% | Activity (Nucleic Acid [8]): 72.2% | Activity (Nucleic Acid [9]): 4.78% | Activity (Nucleic Acid [10]): 7.62% | Activity (Nucleic Acid [11]): 94.1% | Activity (Nucleic Acid [12]): 98.2% | Activity (Nucleic Acid [13]): 96.8% | Activity (Nucleic Acid [14]): 3.24% | Activity (Nucleic Acid [15]): 95% | Activity (Nucleic Acid [16]): 92.9% | Activity (Nucleic Acid [17]): 9.67% | Activity (Nucleic Acid [18]): 27.8% | Activity (Nucleic Acid [19]): 6.09% | Activity (Nucleic Acid [20]): 5.87% | Activity (Nucleic Acid [21]): 85.8% | Activity (Nucleic Acid [22]): 92% | Activity (Nucleic Acid [23]): 99.6% | Activity (Nucleic Acid [24]): 1.52% | Activity (Nucleic Acid [25]): 98.5% | Activity (Nucleic Acid [26]): 1.43% | Activity (Nucleic Acid [27]): 2.43% | Activity (Nucleic Acid [28]): 1.8% | Activity (Nucleic Acid [29]): 97.4% | Activity (Nucleic Acid [30]): 0.4% | Activity (Nucleic Acid [31]): 96.9% | Activity (HeLa [32]): 1% | Activity (Nucleic Acid [33]): 92.4% | Activity (Nucleic Acid [34]): 14.2% | Activity (HL-60 [35]): 1% | Activity (Nucleic Acid [36]): 7.99% | Activity (Nucleic Acid [37]): 7.13% | Activity (HeLa [38]): 2% | Activity (Nucleic Acid [39]): 98.6% | Activity (Nucleic Acid [40]): 2.64% | Activity (HL-60 [41]): 57% | Activity (Nucleic Acid [42]): 2.13% | Activity (Nucleic Acid [43]): 95.2% | Activity (Nucleic Acid [44]): 90.3% | Activity (HeLa [45]): 1% | Activity (Nucleic Acid [46]): 3.07%
